# Data taken from patent US20250339404A1, “COMBINATION THERAPY USING A CD47-SIRP alpha BLOCKING AGENT AND AZACITIDINE” (Aurigene Oncology Limited, priority 2024, published 2025).
# “Also recorded” adds a separate entry of the source. Structures can show the parent of a compound that is named as a salt.
# What was measured:
# [1] = Phase I/IIa open label dose-escalation safety study in subjects with relapsed advanced malignancies; type: in vivo, human; settings: for Grade 3 or 4 toxicities / adverse events: correlated with the Test Product
# Source text: Study objective: To evaluate the overall safety profile of the compound of formula (I) in human subjects with relapsed advanced malignancies.
# The following table summarizes the (final) study protocol.
# HL-60 cells = experiment: Phagocytosis of HL-60 cells by human macrophages; type: cell-based
# Protocol: The objective of this study was to determine the effect of Calcium salt of compound of formula (I) and azacitidine mediated induction of phagocytosis of HL-60 cells by human macrophages. Different doses of Calcium salt of compound of formula (I) were tested to determine increase in phagocytosis of HL-60 cells (with or without azacitidine treatment) by macrophages isolated from healthy human volunteers.
# Preparation of test compound: 20 mM stock concentration of Calcium salt of compound of formula (I) was prepared. The stock was further diluted to get intermediate and final concentrations. The final assay volume was 200 μL. Medium used for dilution is RPMI media. Four concentrations of Calcium salt of compound of formula (I) ranging from 10 μM to 0.3 μM were used in the assay.
# Preparation of macrophage culture media: 5 mL of FBS and 10 μL of recombinant human M CSF (100 μg/mL stock) was added to 45 mL of RPMI to prepare macrophage culture media as and when required.
# Preparation of HL-60 cell culture media: 10 mL of FBS was added to 40 mL of IMDM media to prepare HL-60 cell culture media.
# Preparation of working stock of azacitidine: A 20 mM stock of azacitidine prepared by adding 172.1 μL of DMSO in 0.84 mg of azacitidine. 4.5 μL of 20 mM stock of azacitidine was added to 25.5 μL of DMSO to prepare 3 mM azacitidine working stock solution. This is 1000× of the desired final treatment concentration of 3 μM.
# Preparation of working stock of Mouse IgG1 Kappa isotype control: Molarity of mouse IgG1 kappa isotype control antibody was calculated using online molarity calculator (https://www.graphpad.com/quickcalcs/Molarityform.cfm). Formula weight of antibody was 150 KDa. Molarity of isotype control antibody stock was 6.6667 μM. 3 μL of isotype control antibody stock solution was added to 197 μL RPMI media to prepare 100 nM of working stock solution. This is 10× stock of the required conc of isotype control. Preparation of working stock of anti-human CD47 antibody Molarity of anti-human CD47 antibody was calculated using online molarity calculator (https://www.graphpad.com/quickcalcs/Molarityform.cfm). Formula weight of anti-Human CD47 antibody was 150 KDa. Molarity of anti-human CD47 antibody stock was 6.6667 μM. This stock of anti-human CD47 antibody was further diluted to get intermediate and final concentrations as described below. 3 μL of anti-human CD47 antibody stock solution was added to 197 μL RPMI media to prepare 100 nM of working stock solution (10×).
# Preparation of test system: 90 mL whole blood from healthy volunteer was collected in a Na-Heparin vacutainer and stored at room temperature until use. PBMCs isolated from blood were used for isolating monocytes and to differentiate them into macrophages for the phagocytosis assay.
# 90 mL blood was collected from healthy volunteer in NA-Heparin vacutainer. PBMCs were isolated and were resuspended in 50 mL serum free RPMI 1640 media. For isolation of monocytes, 10 mL of PBMC cell suspension was seeded in each T75 culture flask (total 5 flasks) and were cultured at 37 degree for 2 hours. Monocytes were attached to culture flask by adherence method. Media from these flasks was discarded and attached monocytes were washed once with prewarmed PBS. Monocytes were further cultured in 10 mL of macrophage culture media and were differentiated to macrophages for 10 days. Media from each flask was changed every alternate day or after every 2 days with fresh macrophage culture media.
# A vial of HL-60 cell stock was taken from liquid nitrogen. Cells were thawed in a water bath at 37° C. till the last crystal is thawed. Cells were transferred to 50 mL of culture media in a falcon tube and centrifuged at 800 rpm for 8 minutes. Cells were further cultured in 20 mL of HL-60 cell culture media in T75 flasks at 37° C. at 5% CO2 for 24 hrs. After 24 hrs, the cells were centrifuged at 800 rpm for 5 mins. The cells were cultured in 25 mL of complete media at 37° C. and 5% CO2 for 2 more days. […]
# [2] = tested on: Chemokines (MCP-3, MCP-1, MIP-1α & MIP-1β) and Cytokines (IL-12p40, IL-1A, IL-8, TNFα & IL-6); experiment: Pharmacodynamic biomarkers in the Phase I/IIa study; type: in vivo, human; settings: all cohorts, as a result of treatment
# Source text: Chemokines are known for their role in recruitment of macrophages to sites of infection, damage, or tumors for the purpose of phagocytosis and healing. An upregulation of chemokines followed by administration of the compound of formula (I) is indicative of the CD-47 inhibition mediated enhanced phagocytosis. Disruption of the IL-6-STAT3 axis is known to reduce the ability of tumor cells to escape phagocytosis (Jing Chen et al. Oncoimmunology 2019, VOL. 8, NO. 11, e1652540). A drop in IL-6 level is also indicative of macrophage activation.
# [3] = 0.3 μM, DMSO treated HL-60 cells
# [4] = 10 μM, DMSO treated HL-60 cells, normalized to 10 nM anti-human CD47
# [5] = all subjects, across dose levels 25-400 mg BID oral
# [6] = Azacitidine 3 μM alone, HL-60 cells treated 72 hrs
structure (smiles),measurement,setting,value
N=C(N)NCCC[C@H](NC(=O)N1CCCC1C(=O)O)c1nc([C@@H](N)CCC(=O)O)no1 (stereo partly shown) [Calcium salt of compound of formula (I)],Grade 3 or 4 toxicities / adverse events,[1]; all cohorts,No Grade 3 or 4 toxicities
same,causality assessment of the serious adverse events,[1]; by principal investigators and study sponsor,Not Related
same,serious adverse events reported,"[1]; one in cohort 2 (50 mg BID), one in cohort 3 (100 mg BID)",Two serious adverse events were reported
same,% Normalized phagocytosis Replicate 1,HL-60 cells; [3],−1.92%
same,% Normalized phagocytosis Replicate 2,HL-60 cells; [3],−10.34%
same,% Normalized phagocytosis Replicate 1,"HL-60 cells; 1 μM, DMSO treated HL-60 cells",19.54%
same,% Normalized phagocytosis Replicate 2,"HL-60 cells; 1 μM, DMSO treated HL-60 cells",4.98%
same,% Normalized phagocytosis Replicate 1,"HL-60 cells; 3 μM, DMSO treated HL-60 cells",−10.34%
same,% Normalized phagocytosis Replicate 2,"HL-60 cells; 3 μM, DMSO treated HL-60 cells",−14.94%
same,increase in phagocytosis of HL-60 cells,HL-60 cells; 10 μM alone,54.79%
same,% Normalized phagocytosis Replicate 1,HL-60 cells; [4],62.35%
same,% Normalized phagocytosis Replicate 2,HL-60 cells; [4],47.13%
N=C(N)NCCC[C@H](NC(=O)N1CCC[C@@H]1C(=O)O)c1nc([C@@H](N)CCC(=O)O)no1 [Compound of formula (I)],"IL12p40, TNFα, MCP-1, MIP-1α, MIP-1β and MCP-3 levels",[2],a trend towards upregulation
same,IL-6 and IL-1α levels,[2],a trend towards downregulation
same,severity of reported non-serious adverse events,"[1]; all cohorts, NCI CTCAE v 5.0",mild to moderate
same,Grade 3 or 4 toxicities / adverse events,[1]; all cohorts,no grade 3 or grade 4 adverse events
same,Grade 3 or 4 toxicities / adverse events,"[1]; all cohorts, listed as compound of formula (I)",no grade 3 or grade 4 adverse events
same,DLT (Dose Limiting Toxicity),[1]; [5],without any DLT
same,hemolytic anemia,[1]; [5],No hemolytic anemia was reported in any subject; also recorded: no hemolytic anemia in any of the tested subjects
same,tolerability of treatment,"[1]; all subjects, across dose levels 25-400 mg BID oral, up to 4 cycles of 28 days",well tolerated
same,hemolytic anemia,"[1]; all subjects, across dose levels 25-400 mg BID oral, listed as compound of formula (I)",no hemolytic anemia in any of the tested subjects
same,safe and tolerable total daily dose,"[1]; oral, total daily dose",≤ 800 mg
same,safe and tolerable dose,[1]; per oral BID,≤ 400 mg
same,Serious Adverse Reactions (SAR's) or Suspected Unexpected Serious Adverse Reactions (SUSAR's),[1]; reporting period,No Serious Adverse Reactions (SAR's) or Suspected Unexpected Serious Adverse Reactions (SUSAR's) were reported
same,dose reductions due to treatment-related AEs,[1]; reporting period,no dose reductions
"Nc1ncn([C@@H]2O[C@H](CO)[C@@H](O)[C@H]2O)c(=O)n1 [Azacitidine, 4-Amino-1-β-D-ribofuranosyl-s-triazin-2(1H)-one]",increase in phagocytosis of HL-60 cells,HL-60 cells; 3 μM azacitidine treatment of HL-60 cells alone,71.26%
same,% Normalized phagocytosis Replicate 1,HL-60 cells; [6],76.25%
same,% Normalized phagocytosis Replicate 2,HL-60 cells; [6],66.28%
